{"source": "patent US6384028B1", "about": "“N-acylpiperidinylcarbonylaminocarboxylic acids and their use as glycoprotein IIb/IIIa antagonists and fibrinogen-blood platelets binding inhibitors” (Fujisawa Pharmaceutical Co., Ltd., priority 1995, dated 2002)", "system": "platelet aggregation induced by ADP in platelet rich plasma (PRP) prepared from human blood", "assay": "Effect on platelet aggregation induced by adenosine diphosphate (ADP)", "type": "cell-based", "conditions": "2 min, 3×10^8 platelets/ml, drug stirred for 2 minutes at 37° C., ADP final 2.5 μM, aggregometer", "method": "Test 1: Effect on Platelet Aggregation Induced by Adenosine Diphosphate (ADP)\nPlatelet rich plasma (PRP) which contains 3×10^8 platelets/ml was prepared from human blood. To the 225 μl of PRP, 25 μl of drug solution* was added, and then stirred for 2 minutes at 37° C. To the solution 5 μl of ADP (final 2.5 μM) was added as an aggregation inducer. Aggregation was measured by using an aggregometer (NBS HEMA-TRACER 801). Activity of inhibitor (test compound) was expressed as IC50 value i.e. dose required for […] inhibition of platelet aggregation.\nDrug solution* - - - Test compound was dissolved in water.", "note": "Where a name gives a salt, the structure may show the parent alone.", "data": [{"smiles": "O=C(O)C[C@@H](CCc1ccccc1)NC(=O)[C@@H]1CCCN(C(=O)/C=C/C2CCNCC2)C1", "note": "[Example 25, N-[(R)-1-[3-(4-Piperidyl)-(E)-acryloyl]-3-piperidylcarbonyl]-3(R)-phenethyl-β-alanine Hydrochloride]", "values": [{"measurement": "IC50", "value": 85, "unit": "nM"}]}]}
